Laboratory results as given in the supplement of paper PMC11061612.

Tests used:
[1] = test system: CAL-62 (Thyroid Gland Carcinoma); assay: combination Emax (second highest fraction inhibited in the dose matrix, 72 h); higher = more inhibition; extreme values may be limits of the assay
Procedure, shortened: (§1)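 Bliss excess equals the observed combination effect minus the expected value EA + EB − EA·EB, where EA and EB are the effects of each agent alone. Combination Emax is the second-highest inhibition within the matrix. Inhibition was scaled from CellTiter-Glo 2.0 luminescence, with 0 set by vehicle wells and 1 by blank wells, after 72 hours of two-drug dosing of cells plated in 1536-well plates.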

[2] = test system: PC-3_[JPC-3] (Lung Adenocarcinoma); assay: as above
Procedure, shortened: as §1

SF539 (Glioblastoma) = assay: as above
Procedure, shortened: as §1

[3] = test system: MKN45 (Gastric Carcinoma); assay: as above
Procedure, shortened: as §1

IST-MES1 (Mesothelioma) [4] = assay: as above
Procedure, shortened: as §1

[5] = test system: L-1236 (Hodgkin's Lymphoma); assay: as above
Procedure, shortened: as §1

[6] = test system: VAL (B-Cell Non-Hodgkin's Lymphoma); assay: as above
Procedure, shortened: as §1

[7] = test system: PSN1 (Pancreatic Carcinoma); assay: as above
Procedure, shortened: as §1

[8] = test system: SHP-77 (Small Cell Lung Carcinoma); assay: as above
Procedure, shortened: as §1

[9] = test system: PANC-03-27 (Pancreatic Carcinoma); assay: as above
Procedure, shortened: as §1

[10] = test system: LK-2 (Squamous Cell Lung Carcinoma); assay: as above
Procedure, shortened: as §1

[11] = test system: TE-8 (Esophageal Squamous Cell Carcinoma); assay: as above
Procedure, shortened: as §1

[12] = test system: SK-PN-DW (Other Solid Carcinomas); assay: as above
Procedure, shortened: as §1

[13] = test system: RKN (Other Solid Carcinomas); assay: as above
Procedure, shortened: as §1

[14] = test system: HSC-39 (Gastric Carcinoma); assay: as above
Procedure, shortened: as §1

NB12 (Neuroblastoma) = assay: as above
Procedure, shortened: as §1

[15] = test system: NCI-H2342 (Lung Adenocarcinoma); assay: Bliss excess, mean over the matrix (fraction); higher = more synergy
Procedure, shortened: as §1

IST-MES1 (Mesothelioma) [16] = assay: as above
Procedure, shortened: as §1

[17] = test system: L-1236 (Hodgkin's Lymphoma); assay: as above
Procedure, shortened: as §1

SK-MEL-2 (Melanoma) = assay: as above
Procedure, shortened: as §1

SMILES	combination Emax [1]	combination Emax [2]	combination Emax (SF539 (Glioblastoma))	combination Emax [3]	combination Emax (IST-MES1 (Mesothelioma) [4])	combination Emax [5]	combination Emax [6]	combination Emax [7]	combination Emax [8]	combination Emax [9]	combination Emax [10]	combination Emax [11]	combination Emax [12]	combination Emax [13]	combination Emax [14]	combination Emax (NB12 (Neuroblastoma))	Bliss excess [15]	Bliss excess (IST-MES1 (Mesothelioma) [16])	Bliss excess [17]	Bliss excess (SK-MEL-2 (Melanoma))
C=CCn1c(=O)c2cnc(Nc3ccc(N4CCN(C)CC4)cc3)nc2n1-c1cccc(C(C)(C)O)n1 [AZD1775] + CCc1c2c(nc3ccc(O)cc13)-c1cc3c(c(=O)n1C2)COC(=O)[C@]3(O)CC [SN-38] (first compound max 1 µM, partner max 0.3 µM)	0.893	0.736	0.997	0.843	0.778	0.969	0.953	0.927	0.651	0.844	0.975	0.923	0.947	0.817	1	0.879	0.0025	0.0008	-0.0372	0.0426
C=CCn1c(=O)c2cnc(Nc3ccc(N4CCN(C)CC4)cc3)nc2n1-c1cccc(C(C)(C)O)n1 [AZD1775] + Nc1ccn([C@@H]2O[C@H](CO)[C@@H](O)C2(F)F)c(=O)n1 [Gemcitabine] (first compound max 1 µM, partner max 0.3 µM)	0.826	0.574	0.986	0.753	0.831	0.954	0.794	0.832	0.676	0.703	0.982	0.806	0.864	0.633	1	0.806	0.0724	0.0603	-0.0076	-0.0156
CN(CCO)CC[C@H](CSc1ccccc1)Nc1ccc(S(=O)(=O)NC(=O)c2ccc(N3CCC([C@@H](O)c4ccccc4-c4ccc(Cl)cc4)CC3)cc2)cc1S(=O)(=O)C(F)(F)F [AZD4320] + CC(=O)O[C@H]1C(=O)[C@@]2(C)[C@H]([C@H](OC(=O)c3ccccc3)[C@]3(O)C[C@H](OC(=O)[C@H](O)[C@@H](NC(=O)c4ccccc4)c4ccccc4)C(C)=C1C3(C)C)[C@]1(OC(C)=O)CO[C@@H]1C[C@@H]2O [Paclitaxel] (first compound max 1 µM, 7x7, partner max 3 µM)	0.951	0.76	1	0.751	0.873	1	1	0.942	1	0.885	1	0.967	0.918	0.994	1	1	0.0455	0.0787	0.0186	0.148
CN(CCO)CC[C@H](CSc1ccccc1)Nc1ccc(S(=O)(=O)NC(=O)c2ccc(N3CCC([C@@H](O)c4ccccc4-c4ccc(Cl)cc4)CC3)cc2)cc1S(=O)(=O)C(F)(F)F [AZD4320] + CS(=O)(=O)CCNCc1ccc(-c2ccc3ncnc(Nc4ccc(OCc5cccc(F)c5)c(Cl)c4)c3c2)o1 [Lapatinib] (first compound max 1 µM, 7x7, partner max 10 µM)	0.911	0.912	0.575	0.2	0.892	1	1	0.267	0.969	0.907	0.977	0.744	0.85	0.212	0.985	1	-0.0137	0.0367	-0.0252	-0.0501
CN(CCO)CC[C@H](CSc1ccccc1)Nc1ccc(S(=O)(=O)NC(=O)c2ccc(N3CCC([C@@H](O)c4ccccc4-c4ccc(Cl)cc4)CC3)cc2)cc1S(=O)(=O)C(F)(F)F [AZD4320] + Nc1ccn([C@@H]2O[C@H](CO)[C@@H](O)C2(F)F)c(=O)n1 [Gemcitabine] (first compound max 1 µM, 7x7, partner max 0.3 µM)	0.911	0.675	0.945	0.582	0.8	1	1	0.885	0.549	0.737	0.916	0.57	0.165	0.275	0.869	1	0.0364	0.0448	-0.0377	-0.0453
Cc1c2c(nn1C)CSCc1cc(n(C)n1)CSc1cc(c3ccccc3c1)OCCCc1c(C(=O)O)n(C)c3c-2c(Cl)ccc13 [AZD5991] + CC(=O)O[C@H]1C(=O)[C@@]2(C)[C@H]([C@H](OC(=O)c3ccccc3)[C@]3(O)C[C@H](OC(=O)[C@H](O)[C@@H](NC(=O)c4ccccc4)c4ccccc4)C(C)=C1C3(C)C)[C@]1(OC(C)=O)CO[C@@H]1C[C@@H]2O [Paclitaxel] (first compound max 1 µM, 7x7, partner max 3 µM)	0.81	0.58	0.971	0.709	0.651	0.846	0.765	0.746	0.971	0.688	0.986	0.702	0.952	0.839	1	0.91	0.082	-0.007	-0.0631	-0.0341
Cc1c2c(nn1C)CSCc1cc(n(C)n1)CSc1cc(c3ccccc3c1)OCCCc1c(C(=O)O)n(C)c3c-2c(Cl)ccc13 [AZD5991] + CS(=O)(=O)CCNCc1ccc(-c2ccc3ncnc(Nc4ccc(OCc5cccc(F)c5)c(Cl)c4)c3c2)o1 [Lapatinib] (first compound max 1 µM, 7x7, partner max 10 µM)	0.237	0.833	0.479	0.245	0.615	0.798	0.677	0.316	0.42	0.558	0.186	0.409	0.956	0.205	1	0.464	0.012	0.0139	0.102	-0.0147
Cc1c2c(nn1C)CSCc1cc(n(C)n1)CSc1cc(c3ccccc3c1)OCCCc1c(C(=O)O)n(C)c3c-2c(Cl)ccc13 [AZD5991] + Nc1ccn([C@@H]2O[C@H](CO)[C@@H](O)C2(F)F)c(=O)n1 [Gemcitabine] (first compound max 1 µM, 7x7, partner max 0.3 µM)	0.751	0.58	0.886	0.64	0.742	0.806	0.847	0.846	0.595	0.549	0.674	0.574	0.815	0.107	1	0.77	0.0488	-0.0208	-0.0646	-0.0657
C[C@@H]1COCCN1c1cc(C2([S@](C)(=N)=O)CC2)nc(-c2ccnc3[nH]ccc23)n1 [AZD6738] + C1CC(C1)(C(=O)[O-])C(=O)[O-].N.N.[Pt+2] [Carboplatin] (first compound max 10 µM, 7x7, partner max 10 µM)	0.684	0.294	0.875	0.708	0.461	0.807	0.7	0.435	0.506	0.652	0.406	0.522	0.903	0.286	1		-0.0422	-0.0502	-0.0366	-0.005
C[C@@H]1COCCN1c1cc(C2([S@](C)(=N)=O)CC2)nc(-c2ccnc3[nH]ccc23)n1 [AZD6738] + Nc1ccn([C@@H]2O[C@H](CO)[C@@H](O)C2(F)F)c(=O)n1 [Gemcitabine] (first compound max 10 µM, 7x7, partner max 0.3 µM)	0.871	0.665	0.981	0.756	0.798	0.918	0.809	0.893	0.931	0.737	0.918	0.83	0.957	0.788	1	0.801	0.086	-0.0097	0.0294	0.0586
Cc1cc2ncnn2cc1Nc1ncc2c(n1)n(C1CCOCC1)c(=O)n2C [AZD7648] + COc1cc([C@@H]2c3cc4c(cc3[C@@H](O[C@@H]3O[C@@H]5CO[C@@H](C)O[C@H]5[C@H](O)[C@H]3O)[C@H]3COC(=O)[C@H]23)OCO4)cc(OC)c1O [Etoposide] (first compound max 10 µM, 7x7, partner max 10 µM)	0.829	0.415	0.934	0.582	0.685	0.845	0.905	0.834	0.546	0.619	0.784	0.602	0.918	0.598	0.854	0.695	0.0597	0.116	0.0004	-0.0163
C[C@@H](Nc1cc(F)cc(F)c1)c1cc(C(=O)N(C)C)cc2c(=O)cc(N3CCOCC3)oc12 [AZD8186] + C1CN(CCC1(C(=O)N[C@@H](CCO)C2=CC=C(C=C2)Cl)N)C3=NC=NC4=C3C=CN4 [AZD5363] (first compound max 10 µM, 7x7, partner max 10 µM)	0.165	0.295	0.538	0.455	0.267	0.722	0.555	0.357	0.275	0.315	0.177	0.455	0.575	0.328	0.603	0.419	0.0003	-0.0703	-0.0371	-0.0285
